Measured values reported in patent US20240327408A1, “COMPOUNDS CONTAINING TETRAHYDRONAPHTHYRIDINONE OR TETRAHYDROPYRIDOPYRIMIDINONE SKELETON, PREPARATION METHOD THEREFOR AND PHARMACEUTICAL USE THEREOF” (CHINA PHARMACEUTICAL UNIVERSITY, priority 2021, published 2024).
pEC50, pIC50: −log10 of the molar value.

Experiments:
hClpP = biological target: T1, hClpP (Homo sapiens, UniProt Q16740); test: activating ClpP hydrolysis of FITC-casein (fluorescence kinetic detection); assay type: biochemical; conditions: hClpP 1 μM, FITC-Casein 4 μM, 37° C.
T1 construct: made in house
T1 sequence (Q16740 57-277): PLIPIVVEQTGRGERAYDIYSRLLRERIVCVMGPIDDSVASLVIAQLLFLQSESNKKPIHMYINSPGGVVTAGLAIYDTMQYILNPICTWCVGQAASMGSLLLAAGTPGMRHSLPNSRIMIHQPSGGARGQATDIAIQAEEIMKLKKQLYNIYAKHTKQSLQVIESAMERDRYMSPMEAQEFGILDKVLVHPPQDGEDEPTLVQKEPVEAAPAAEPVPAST
Summary of the method: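 hClpP at 1 μM final preincubated with compounds (assay-buffer dilutions 200 μM–2 nM, before mixing) 30 min at 37 °C, then 4 μM final FITC-casein added. Fluorescence read kinetically at 37 °C every 1 min for 15 min, duplicate wells.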

MV4; 11 cells = test: inhibiting the growth of MV4; 11 cells; assay type: cell-based; conditions: Homo sapiens

| SMILES | pEC50 (hClpP) | pIC50 (MV4; 11 cells) |
| --- | --- | --- |
| O=c1c2c(c3cccnc3n1Cc1ccc(Br)cc1)CCN(Cc1cccc(Cl)c1)C2 [Compound I-78, 3-(3-chlorobenzyl)-6-(4-bromobenzyl)-2,3,4,6-tetrahydropyrido[3,4-c][1,8]naphthyridine-5-(1H)-one] | > 6.00 | > 6.00 |
| O=c1c2c(c3cccnc3n1Cc1ccc(Br)cc1)CCN(Cc1cccc(Br)c1)C2 [Compound I-79, 3-(3-bromobenzyl)-6-(4-bromobenzyl)-2,3,4,6-tetrahydropyrido[3,4-c][1,8]naphthyridine-5-(1H)-one] | > 6.00 | > 6.00 |
| O=c1c2c(c3ccccc3n1Cc1ccc(C(F)(F)F)cc1)CCN(Cc1ccccc1)C2 [Compound I-80, 3-benzyl-6-(4-(trifluoromethyl)benzyl)-2,3,4,6-tetrahydrobenzo[c][2,7]naphthyridine-5-(1H)-one] | > 6.00 | > 6.00 |
| O=c1c2c(c3cncnc3n1Cc1ccc(C(F)(F)F)cc1)CCN(Cc1ccccc1)C2 [Compound I-81, 8-benzyl-5-(4-(trifluoromethyl)benzyl)-7,8,9,10-tetrahydropyrimidinyl[4,5-c][2,7]naphthyridine-6-(5H)-one] | > 6.00 | > 6.00 |
| N#Cc1cccc(CN2CCc3c(c(=O)n(Cc4ccccc4)c4ncccc34)C2)c1 [Compound I-82, 6-benzyl-3-(3-cyanobenzyl)-2,3,4,6-tetrahydropyrido[3,4-c][1,8]naphthyridine-5-(1H)-one] | > 6.00 | > 6.00 |
| N#Cc1cccc(CN2CCc3c(c(=O)n(Cc4ccc(C(F)(F)F)cc4)c4ncccc34)C2)c1 [Compound I-83, 6-(4-trifluoromethylbenzyl)-3-(3-cyanobenzyl)-2,3,4,6-tetrahydropyrido[3,4-c][1,8]naphthyridine-5-(1H)-one] | > 6.00 | > 6.00 |
| N#Cc1cccc(CN2CCc3c(c(=O)n(Cc4ccc(F)cc4)c4ncccc34)C2)c1 [Compound I-84, 6-(4-fluorobenzyl)-3-(3-cyanobenzyl)-2,3,4,6-tetrahydropyrido[3,4-c][1,8]naphthyridine-5-(1H)-one] | > 6.00 | > 6.00 |
| N#Cc1cccc(CN2CCc3c(c(=O)n(Cc4ccc(Cl)cc4)c4ncccc34)C2)c1 [Compound I-85, 6-(4-chlorobenzyl)-3-(3-cyanobenzyl)-2,3,4,6-tetrahydropyrido[3,4-c][1,8]naphthyridine-5-(1H)-one] | > 6.00 | > 6.00 |
| N#Cc1cccc(CN2CCc3c(c(=O)n(Cc4ccc(Br)cc4)c4ncccc34)C2)c1 [Compound I-86, 6-(4-bromobenzyl)-3-(3-cyanobenzyl)-2,3,4,6-tetrahydropyrido[3,4-c][1,8]naphthyridine-5-(1H)-one] | > 6.00 | > 6.00 |
| COc1ccc(Cn2c(=O)c3c(c4cccnc42)CCN(Cc2cccc(C#N)c2)C3)cc1 [Compound I-87, 6-(4-methoxybenzyl)-3-(3-cyanobenzyl)-2,3,4,6-tetrahydropyrido[3,4-c][1,8]naphthyridine-5-(1H)-one] | > 6.00 | > 6.00 |
| N#Cc1cccc(CN2CCc3c(c(=O)n(Cc4ccc([N+](=O)[O-])cc4)c4ncccc34)C2)c1 [Compound I-88, 6-(4-nitrobenzyl)-3-(3-cyanobenzyl)-2,3,4,6-tetrahydropyrido[3,4-c][1,8]naphthyridine-5-(1H)-one] | 5.00 to 6.00 | 5.00 to 6.00 |
| CNc1ccc(Cn2c(=O)c3c(c4cccnc42)CCN(Cc2cccc(C#N)c2)C3)cc1 [Compound I-89, 6-(4-methylaminobenzyl)-3-(3-cyanobenzyl)-2,3,4,6-tetrahydropyrido[3,4-c][1,8]naphthyridine-5-(1H)-one] | 5.00 to 6.00 | 5.00 to 6.00 |
| CN(C)c1ccc(Cn2c(=O)c3c(c4cccnc42)CCN(Cc2cccc(C#N)c2)C3)cc1 [Compound I-90, 6-(4-dimethylaminobenzyl)-3-(3-cyanobenzyl)-2,3,4,6-tetrahydropyrido[3,4-c][1,8]naphthyridine-5-(1H)-one] | 5.00 to 6.00 | 5.00 to 6.00 |
| Cc1ccc(Cn2c(=O)c3c(c4cccnc42)CCN(Cc2cccc(C#N)c2)C3)cc1 [Compound I-91, 6-(4-methylbenzyl)-3-(3-cyanobenzyl)-2,3,4,6-tetrahydropyrido[3,4-c][1,8]naphthyridine-5-(1H)-one] | > 6.00 | > 6.00 |
| Cc1ccc(Cn2c(=O)c3c(c4cccnc42)CCN(Cc2cccc(Cl)c2)C3)cc1 [Compound I-92, 6-(4-methylbenzyl)-3-(3-chlorobenzyl)-2,3,4,6-tetrahydropyrido[3,4-c][1,8]naphthyridine-5-(1H)-one] | > 6.00 | > 6.00 |
| Cc1ccc(Cn2c(=O)c3c(c4cccnc42)CCN(Cc2cccc(F)c2)C3)cc1 [Compound I-93, 6-(4-methylbenzyl)-3-(3-fluorobenzyl)-2,3,4,6-tetrahydropyrido[3,4-c][1,8]naphthyridine-5-(1H)-one] | > 6.00 | > 6.00 |

More lines, now with the values ahead:

| pEC50 (hClpP) | pIC50 (MV4; 11 cells) | SMILES |
| --- | --- | --- |
| > 6.00 | > 6.00 | CCc1ccc(Cn2c(=O)c3c(c4cccnc42)CCN(Cc2cccc(C#N)c2)C3)cc1 [Compound I-94, 6-(4-ethylbenzyl)-3-(3-cyanobenzyl)-2,3,4,6-tetrahydropyrido[3,4-c][1,8]naphthyridine-5-(1H)-one] |
| > 6.00 | > 6.00 | CCc1ccc(Cn2c(=O)c3c(c4cccnc42)CCN(Cc2cccc(F)c2)C3)cc1 [Compound I-95, 6-(4-ethylbenzyl)-3-(3-fluorobenzyl)-2,3,4,6-tetrahydropyrido[3,4-c][1,8]naphthyridine-5-(1H)-one] |
| > 6.00 | > 6.00 | CCc1ccc(Cn2c(=O)c3c(c4cccnc42)CCN(Cc2cccc(Cl)c2)C3)cc1 [Compound I-96, 6-(4-ethylbenzyl)-3-(3-chlorobenzyl)-2,3,4,6-tetrahydropyrido[3,4-c][1,8]naphthyridine-5-(1H)-one] |
| 5.00 to 6.00 | 5.00 to 6.00 | O=c1c2c(c3cccnc3n1Cc1ccc3c(c1)OCCO3)CCN(Cc1cccc(Cl)c1)C2 [Compound I-97, 3-(3-chlorobenzyl)-6-((2,3-dihydro[1,4]benzodioxin-6-yl)methyl)-2,3,4,6-tetrahydropyrido[3,4-c][1,8]naphthyridine-5(1H)-one] |
| 5.00 to 6.00 | 5.00 to 6.00 | N#Cc1cccc(CN2CCc3c(c(=O)n(Cc4ccc5c(c4)OCO5)c4ncccc34)C2)c1 [Compound I-98, 6-([1,3]benzodioxol-5-ylmethyl)-3-(3-cyanobenzyl)-2,3,4,6-tetrahydropyrido[3,4-c][1,8]naphthyridine-5-(1H)-one] |
| > 6.00 | > 6.00 | COc1ccc(Cn2c(=O)c3c(c4cccnc42)CCN(Cc2cccc(F)c2)C3)cc1 [Compound I-99, 6-(4-methoxybenzyl)-3-(3-fluorobenzyl)-2,3,4,6-tetrahydropyrido[3,4-c][1,8]naphthyridine-5-(1H)-one] |
| > 6.00 | > 6.00 | COc1ccc(Cn2c(=O)c3c(c4cccnc42)CCN(Cc2cccc(Cl)c2)C3)cc1 [Compound I-100, 6-(4-methoxybenzyl)-3-(3-chlorobenzyl)-2,3,4,6-tetrahydropyrido[3,4-c][1,8]naphthyridine-5-(1H)-one] |
| > 6.00 | > 6.00 | O=c1c2c(c3cocc3n1Cc1ccc(C(F)(F)F)cc1)CCN(Cc1ccccc1)C2 [Compound I-101, 7-benzyl-4-(4-trifluoromethylbenzyl)-6,7,8,9-tetrahydrofuro[3,4-C][2,7]naphthyridine-5(4H)-one] |
| > 6.00 | > 6.00 | O=c1c2c(c3cscc3n1Cc1ccc(C(F)(F)F)cc1)CCN(Cc1ccccc1)C2 [Compound I-102, 7-benzyl-4-(4-trifluoromethylbenzyl)-6,7,8,9-tetrahydrothieno[3,4-C][2,7]naphthyridine-5(4H)-one] |
| > 6.00 | > 6.00 | O=c1c2c(c3sccc3n1Cc1ccc(C(F)(F)F)cc1)CCN(Cc1ccccc1)C2 [Compound I-103, 7-benzyl-4-(4-trifluoromethylbenzyl)-6,7,8,9-tetrahydrothieno[3,2-C][2,7]naphthyridine-5(4H)-one] |
| > 6.00 | > 6.00 | O=c1c2c(c3ccsc3n1Cc1ccc(C(F)(F)F)cc1)CCN(Cc1ccccc1)C2 [Compound I-104, 7-benzyl-4-(4-trifluoromethylbenzyl)-6,7,8,9-tetrahydrothieno[2,3-C][2,7]naphthyridine-5(4H)-one] |
| 5.00 to 6.00 | 5.00 to 6.00 | O=c1c2c(c3scnc3n1Cc1ccc(C(F)(F)F)cc1)CCN(Cc1ccccc1)C2 [Compound I-105, 7-benzyl-4-(4-trifluoromethylbenzyl)-6,7,8,9-tetrahydrothiazolo[4,5-C][2,7]naphthyridine-5(4H)-one] |
| 5.00 to 6.00 | 5.00 to 6.00 | Cc1ccccc1Cn1c(=O)c2c(n3ccnc13)CCN(Cc1ccccc1)C2 [Compound I-106, 7-benzyl-4-(2-methylbenzyl)-6,7,8,9-tetrahydroimidazo[1,2-a]pyrido[3,4-e]pyrimidine-5(4H)-one] |
| 5.00 to 6.00 | 5.00 to 6.00 | O=c1c2c(n3ccnc3n1Cc1ccccc1)CCN(Cc1ccccc1)C2 [Compound I-107, 4,7-dibenzyl-6,7,8,9-tetrahydroimidazo[1,2-a]pyrido[3,4-e]pyrimidine-5(4H)-one] |
| > 6.00 | > 6.00 | O=c1c2c(n3ccnc3n1Cc1ccccc1)CCN(Cc1cccc(F)c1)C2 [Compound I-108, 7-(3-fluorobenzyl)-4-benzyl-6,7,8,9-tetrahydroimidazo[1,2-a]pyrido[3,4-e]pyrimidine-5(4H)-one] |
| > 6.00 | > 6.00 | O=c1c2c(n3ccnc3n1Cc1ccccc1)CCN(Cc1cccc(Cl)c1)C2 [Compound I-109, 7-(3-chlorobenzyl)-4-benzyl-6,7,8,9-tetrahydroimidazo[1,2-a]pyrido[3,4-e]pyrimidine-5(4H)-one] |
| > 6.00 | > 6.00 | Cc1cccc(CN2CCc3c(c(=O)n(Cc4ccccc4)c4nccn34)C2)c1 [Compound I-110, 7-(3-methylbenzyl)-4-benzyl-6,7,8,9-tetrahydroimidazo[1,2-a]pyrido[3,4-e]pyrimidine-5(4H)-one] |
